Where two headings read alike, the source gives them in different places.
Experiments:
HCMV (strain AD169) = assay: Inhibition of HCMV replication, plaque reduction assay (PRA, Hs-68 cells); assay type: cell-based, Human Cytomegalovirus (HCMV); details: read-out: PRA CMV EC50
Procedure: C) Inhibition of Human Cytomegalovirus (HCMV) Replication
The effect of compounds on the replication of HCMV has been measured by using an ELISA-based assay (ELISA) and a plaque reduction assay (PRA).
Hs-68 cells (ATCC # CRL 1635) were seeded in 12-well plates at 83,000 cells/well in 1 mL of DMEM medium (Gibco Canada Inc.) supplemented with 10% fetal bovine serum (FBS, Gibco Canada Inc.). The plates were incubated for 3 days at 37° to allow the cells to reach 80-90% confluency prior to the assay.
The medium was removed from the cells by aspiration. The cells were then infected with approximately 50 PFU of HCMV (strain AD169, ATCC VR-538) in DMEM medium supplemented with 5% inactivated FBS (assay medium). The virus was allowed to adsorb to cells for 2 h at 37°. Following viral adsorption, the medium was removed from the wells by aspiration. The cells were then incubated with or without 1 mL of appropriate concentrations of test reagent in assay medium. After 4 days of incubation at 37°, the medium was exchanged with fresh medium containing test compound and 4 days later the cells were fixed with 1% aqueous formaldehyde and stained with a 2% crystal violet solution in 20% ethanol in water. Microscopic plaques were counted using a stereomicroscope. Drug effects were calculated as a percent reduction in the number of plaques in the presence of each drug concentration compared to the number observed in the absence of drug. Ganciclovir was used as a positive control in all experiments.
The EC50 values obtained according to this assay for certain thiazolyl derivatives of this invention are listed in the following tables under the heading PRA CMV.

HSV-1 strain F or KOS = assay: Inhibition of herpes simplex virus (HSV-1) replication in cell culture (BHK-21 cells, glycoprotein C ELISA); assay type: cell-based; details: Human alphaherpesvirus 1, BHK-21, Group 1 Table 1 entries
Procedure: B) Inhibition of Herpes Simplex Virus (HSV-1) Replication in Cell Culture
BHK-21 cells clone 13 (ATCC CCL10) were incubated for two days in 850 cm^2 roller bottles (2×10^7 cells/bottle) with A-MEM medium (Gibco Canada Inc., Burlington, Ontario, Canada) supplemented with 8% (v/v) fetal bovine serum (FBS, Gibco Canada, Inc.). The cells were trypsinized and then 3,000 cells in 100 μL of fresh medium were transferred into each well of a 96-well microtiter plate. The cells were incubated at […] for a period of 3 days to reach a density of 50,000 cells per well. The cells were washed twice with 100 μL of α-MEM supplemented with 2% heat inactivated FBS and incubated for 1-2 hours in 100 μL of the same medium.
Thereafter, the cells were infected with HSV-1 strain F or KOS (multiplicity of infection =0.05 PFU/cell) in 50 μL of α-MEM supplemented with 2% heat inactivated FBS. Following one hour of virus absorption at 37°, the medium was removed and the cells were washed with α-MEM supplemented with 2% heat inactivated FBS (2×100 μL). The cells were incubated with or without 100 μL of the appropriate concentration of test reagent in α-MEM medium supplemented with 2% heat inactivated FBS. After 24 hours of incubation at 37°, the extent of viral replication was determined by an ELISA assay; for instance, the following assay that detects the late glycoprotein C of HSV-1.
Cells were fixed in the microtiter plate with 100 μL of 0.063% glutaraldehyde in phosphate buffered saline for 30 min at room temperature. The microtiter plate was then washed once with casein blocking solution and blocked with 200 μL of the same solution for one hour at room temperature. Thereafter, 100 μL of mAb C11 recognizing the glycoprotein C of HSV-1 (see E. Trybala et al., Journal of General Virology, 1994, 75, 743) was added to each well for two hours at room temperature. The plate was washed three times with phosphate buffered saline containing 0.05% polyoxyethylene (20) sorbitan monooleate. The cells were incubated with 100 μL of sheep anti-mouse IgG horseradish peroxidase for one hour at room temperature in the dark.
The plate was washed three times with 200 μL of the above-noted phosphate buffer saline preparation, and then once with 0.1 M sodium citrate (pH 4.5). Thereafter, 100 μL of orthophenylenediamine dihydrochloride (OPD, Gibco, Canada Inc.) was added to each well. The plate was agitated on a microplate shaker for 30 min in the dark. Color development was monitored at 450 nm using a microplate spectrophotometer.
SAS was used to calculate % inhibition of viral replication and to generate EC50 values.

HSV-1 helicase-primase = molecular target: T1, HSV-1 helicase-primase (Human herpesvirus 1, UniProt P10189+P10236); assay: HSV-1 DNA-dependent ATPase assay (inhibition of HSV-1 helicase-primase); assay type: biochemical; details: Group 1 Table 1 entries
T1 construct: made in house; host or cells: Sf21 insect cells triply infected with recombinant baculoviruses (UL5, UL8, UL52)
T1 sequence (P10192 whole entry): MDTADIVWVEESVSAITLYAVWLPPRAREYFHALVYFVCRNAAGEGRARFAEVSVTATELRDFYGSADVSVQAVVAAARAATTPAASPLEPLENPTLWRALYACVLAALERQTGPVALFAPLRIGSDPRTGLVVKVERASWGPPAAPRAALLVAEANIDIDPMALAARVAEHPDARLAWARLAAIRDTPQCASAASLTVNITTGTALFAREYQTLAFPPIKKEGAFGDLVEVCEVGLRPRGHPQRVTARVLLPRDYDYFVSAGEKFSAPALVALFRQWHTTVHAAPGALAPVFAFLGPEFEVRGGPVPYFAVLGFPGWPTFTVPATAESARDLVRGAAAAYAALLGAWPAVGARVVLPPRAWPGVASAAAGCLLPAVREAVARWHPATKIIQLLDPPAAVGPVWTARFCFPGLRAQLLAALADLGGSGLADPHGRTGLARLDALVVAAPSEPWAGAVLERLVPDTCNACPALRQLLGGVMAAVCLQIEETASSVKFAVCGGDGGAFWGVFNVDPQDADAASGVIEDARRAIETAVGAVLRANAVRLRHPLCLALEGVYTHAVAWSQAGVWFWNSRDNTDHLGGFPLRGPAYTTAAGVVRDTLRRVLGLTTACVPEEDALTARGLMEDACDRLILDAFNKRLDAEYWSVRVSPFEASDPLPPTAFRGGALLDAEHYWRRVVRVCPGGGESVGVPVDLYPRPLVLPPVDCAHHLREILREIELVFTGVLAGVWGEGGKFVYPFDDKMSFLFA
T1 sequence (P10236 whole entry): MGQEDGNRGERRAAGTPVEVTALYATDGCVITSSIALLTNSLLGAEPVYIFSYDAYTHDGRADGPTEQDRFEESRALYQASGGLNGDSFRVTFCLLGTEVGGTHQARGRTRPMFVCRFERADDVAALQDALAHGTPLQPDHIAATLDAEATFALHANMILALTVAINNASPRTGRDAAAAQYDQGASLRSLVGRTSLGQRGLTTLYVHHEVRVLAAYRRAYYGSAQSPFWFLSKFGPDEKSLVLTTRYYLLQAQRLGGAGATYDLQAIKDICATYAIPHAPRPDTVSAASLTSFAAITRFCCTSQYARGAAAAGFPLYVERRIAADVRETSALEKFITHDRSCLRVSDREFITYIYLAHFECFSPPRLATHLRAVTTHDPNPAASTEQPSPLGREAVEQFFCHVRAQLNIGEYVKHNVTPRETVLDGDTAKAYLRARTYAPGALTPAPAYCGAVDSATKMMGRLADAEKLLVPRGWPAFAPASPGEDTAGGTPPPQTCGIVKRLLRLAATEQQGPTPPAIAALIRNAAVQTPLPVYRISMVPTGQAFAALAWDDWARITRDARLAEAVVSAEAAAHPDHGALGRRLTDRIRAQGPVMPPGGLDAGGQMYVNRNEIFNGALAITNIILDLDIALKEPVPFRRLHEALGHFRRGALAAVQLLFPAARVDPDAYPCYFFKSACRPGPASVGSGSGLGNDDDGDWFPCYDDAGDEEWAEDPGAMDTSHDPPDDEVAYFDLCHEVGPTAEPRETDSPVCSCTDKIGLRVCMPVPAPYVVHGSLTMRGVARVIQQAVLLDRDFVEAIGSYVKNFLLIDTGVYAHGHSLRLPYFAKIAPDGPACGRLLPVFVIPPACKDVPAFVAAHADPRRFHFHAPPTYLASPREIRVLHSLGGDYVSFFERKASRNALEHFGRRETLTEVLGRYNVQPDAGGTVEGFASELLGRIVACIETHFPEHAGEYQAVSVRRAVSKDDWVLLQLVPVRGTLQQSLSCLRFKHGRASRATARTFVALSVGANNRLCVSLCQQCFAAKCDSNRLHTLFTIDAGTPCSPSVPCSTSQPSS
T1 sequence (P10189 whole entry): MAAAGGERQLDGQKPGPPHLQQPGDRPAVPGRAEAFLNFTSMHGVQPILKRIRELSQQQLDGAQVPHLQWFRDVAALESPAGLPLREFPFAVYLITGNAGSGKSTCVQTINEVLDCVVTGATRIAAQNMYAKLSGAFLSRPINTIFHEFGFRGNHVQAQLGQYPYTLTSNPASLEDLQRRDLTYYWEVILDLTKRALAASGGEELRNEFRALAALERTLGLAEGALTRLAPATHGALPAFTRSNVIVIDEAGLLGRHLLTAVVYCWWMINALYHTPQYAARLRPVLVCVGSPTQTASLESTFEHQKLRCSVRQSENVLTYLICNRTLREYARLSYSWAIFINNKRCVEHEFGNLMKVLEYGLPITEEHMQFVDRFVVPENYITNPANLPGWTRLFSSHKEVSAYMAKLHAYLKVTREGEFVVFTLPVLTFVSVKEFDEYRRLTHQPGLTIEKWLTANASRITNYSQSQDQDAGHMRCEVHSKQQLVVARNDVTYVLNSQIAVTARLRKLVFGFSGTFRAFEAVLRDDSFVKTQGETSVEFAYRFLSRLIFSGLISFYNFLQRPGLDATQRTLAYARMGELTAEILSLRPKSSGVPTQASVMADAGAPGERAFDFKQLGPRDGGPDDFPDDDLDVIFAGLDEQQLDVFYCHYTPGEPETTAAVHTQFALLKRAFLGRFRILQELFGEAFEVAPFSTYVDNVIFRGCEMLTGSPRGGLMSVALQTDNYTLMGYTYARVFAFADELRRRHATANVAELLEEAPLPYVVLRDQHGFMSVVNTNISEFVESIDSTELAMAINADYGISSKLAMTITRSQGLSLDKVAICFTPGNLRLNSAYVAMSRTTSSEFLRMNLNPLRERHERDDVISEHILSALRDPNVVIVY
Excerpt: A) HSV-1 DNA-Dependent ATP Assay (an in Vitro Assay Based on the Inhibition of HSV-1 Helicase-primase).
HSV-1 helicase-primase holoenzyme was produced in triply infected Sf21 cells using recombinant baculoviruses expressing the UL5, UL8 and UL52 helicase-primase subunits, as described by S. Dracheva et al., J. Biol. Chem. 1995, 270, 14148. The crude enzyme was purified by ammonium sulfate precipitation, Source 15Q® chromatography and Sephacryl® S-300 HR gel filtration (both purification systems can be obtained from Pharmacia Biotech Inc., Montreal, Quebec, Canada), see S. Dracheva et al., supra.
The DNA-dependent ATPase assay, described by J. J. Crute et al., Nucleic Acids Res. 1988, 16, 6585, was modified and used to evaluate the capability of the compounds of Group 1-formula 1 to inhibit HSV-1 helicase-primase activity. The reaction mixtures (80 μL each) contained 40 mM 4-(2-hydroxyethyl)-1-piperazineethanesulfonic acid (HEPES, pH 7.5), 10% (v/v) glycerol, 5.5 mM MgCl2, 1 mM DL-dithiothreitol (DTT), 50 μg/mL acetylated bovine serum albumin, 3.3% (v/v) DMSO, 4 mM ATP, 25 μM single-stranded M13 DNA hybridized to double-tailed 68-mer oligonucleotide and 3 μg/mL HSV-1 helicase-primase. After incubation for 20 min at 34°, formation of inorganic phosphate from hydrolysis of ATP was monitored spectrophotometrically at 650 nm using acidic ammonium molybdate/malachite green reagent, P. A. Lanzetta et al., Anal. Biochem. 1979, 100, 95. DNA-dependent ATPase activity was calculated from the net absorbance change in the presence and absence of inhibition.

[1] = Human betaherpesvirus 5, AD169, Hs68, Group 2 Table 1 entries
[2] = Human betaherpesvirus 5, AD169, Hs68, Group 1 Table 1 entries

Row | EC50 (HSV-1 strain F or KOS) [nM] | IC50 (HSV-1 helicase-primase) [nM] | Compound | EC50 (HCMV (strain AD169); [1]) [nM] | EC50 (HCMV (strain AD169); [2]) [nM]
1 |  |  | CCCCN(CCCC)C(=O)Nc1ccc(-c2csc(Nc3ccccn3)n2)cc1 [Example 35] | 2200 | 
2 |  |  | CCCCN(CCCC)C(=O)Nc1ccc(-c2csc(Nc3cccnc3)n2)cc1 [Example 36] | 3000 | 
3 |  |  | Nc1nc(-c2ccc(NC(=O)CN(Cc3ccccc3)C(=O)c3ccsc3)cc2)cs1 [Example 115] |  | 49000
4 |  |  | Nc1nc(-c2ccc(NC(=O)CN(Cc3ccccc3)C(=O)Cc3cccs3)cc2)cs1 [Example 116] |  | 19000
5 |  |  | Nc1nc(-c2ccc(NC(=O)CN(Cc3ccccc3)C(=O)Cc3ccsc3)cc2)cs1 [Example 117] |  | 35000
6 |  |  | Nc1nc(-c2ccc(NC(=O)CN(Cc3ccc(F)cc3)C(=O)Cc3ccccn3)cc2)cs1 [Example 124] |  | 28000
7 |  |  | Nc1nc(-c2ccc(NC(=O)CN(Cc3cccc(F)c3)C(=O)Cc3ccccn3)cc2)cs1 [Example 126] |  | 35000
8 |  |  | Cc1ccccc1CN(CC(=O)Nc1ccc(-c2csc(N)n2)cc1)C(=O)c1cccs1 [Example 128] |  | 28000
9 |  |  | Cc1ccccc1CN(CC(=O)Nc1ccc(-c2csc(N)n2)cc1)C(=O)COc1c(C)cccc1C [Example 129] |  | 12000
10 |  |  | Cc1cc(C)nc(SCC(=O)N(CC(=O)Nc2ccc(-c3csc(N)n3)cc2)Cc2ccccc2C)n1 [Example 130] |  | 8800
11 | 61 | 3000 | Nc1nc(-c2ccc(NC(=O)CN(CCc3cscn3)C(=O)c3ccncc3)cc2)cs1 [Example 164] |  | 
12 | 1100 | 4600 | Cc1nc(CCN(CC(=O)Nc2ccc(-c3csc(N)n3)cc2)C(=O)c2ccncc2)cs1 [Example 165] |  | 
13 | 30 | 430 | Cc1ccn(C)c1C(=O)N(CC(=O)Nc1ccc(-c2csc(N)n2)cc1)Cc1ccccc1 [Example 166] |  | 
14 | 31 | 140 | Cc1cnccc1C(=O)N(CC(=O)Nc1ccc(-c2csc(N)n2)cc1)Cc1ccccc1 [Example 167] |  | 
15 | 450 | 2900 | Cc1cc(C(=O)N(CC(=O)Nc2ccc(-c3csc(N)n3)cc2)Cc2ccccc2)cc(C)n1 [Example 168] |  | 
16 | 150 | 1400 | Nc1nc(-c2ccc(NC(=O)CN(Cc3ccccc3)C(=O)c3ccncn3)cc2)cs1 [Example 169] |  | 
17 | 1500 | 700 | Nc1nc(-c2ccc(NC(=O)CN(Cc3ccccc3)C(=O)c3cscn3)cc2)cs1 [Example 170] |  | 
18 | 92 | 460 | Nc1nc(C(=O)N(CC(=O)Nc2ccc(-c3csc(N)n3)cc2)Cc2ccccc2)cs1 [Example 171] |  | 
19 | 360 | 1600 | Cc1nc(C(=O)N(CC(=O)Nc2ccc(-c3csc(N)n3)cc2)Cc2ccccc2)cs1 [Example 172] |  | 
20 | 50 | 950 | Cc1nc(C)c(C(=O)N(CC(=O)Nc2ccc(-c3csc(N)n3)cc2)Cc2ccccc2)s1 [Example 173] |  | 
21 | 6600 | 9200 | Nc1nc(-c2ccc(NC(=O)CN(CCc3ccncc3)C(=O)c3ccncc3)cc2)cs1 [Example 174] |  | 

Reference: patent publication US6288091A, “Antiherpes virus compounds and methods for their preparation and use” (Boehringer Ingelheim Ltd., priority 1999, dated 2001)
